Like-named read-outs stand apart in the source and are kept apart here. Starred links: 1 amine or outer side, 2 acyl side, 3 side chain; linkers in the order of their positions; H or OH if unused. Non-standard residues stand in square brackets, D forms with d. Residues, ends and D or L forms follow the SMILES beside them. *: point of attachment. NH(3-CONH2-4-OMe-phenyl) = COc1ccc(N*)cc1C(N)=O; 3Abz(6-OMe) = COc1ccc(N[*:1])cc1C(=O)[*:2]
How the values were obtained:
enoxaparin (ENOX) = assay: FXa chromogenic assay (absence of plasma), enoxaparin
Method: (§1) Human antithrombin was mixed with an anticoagulant agent (a LMWH or fondaparinux); final concentrations were 0.22 μg/mL for the LMWHs and 0.07 μg/mL for fondaparinux. […] Absorbance was read every 30 seconds over a 4 minute period in a SpectraMax 250 instrument (Molecular Devices, Inc.). EC50 values are determined by a curve-fit program (SoftMax Pro) using the following formula:
(§2) FXa Chromogenic Assay (absence of plasma). Human antithrombin was mixed with an anticoagulant (a LMWH or fondaparinux); final concentrations were 0.1 μg/mL for the LMWHs and 0.02 μg/mL for fondaparinux. […] Absorbance was read every 30 seconds over a 4 minute period in a SpectraMax 250 instrument (Molecular Devices Inc.™) The slope of absorbance vs time was calculated for each compound concentration. EC50 values were determined using a curve fit program (GraphPad Prism 5).

[1] = tested on: unfractionated heparin (UFH); assay: aPTT clotting assay, UFH 0.2 U/mL in plasma (Example 7); format: biochemical
Method: aPTT clotting Assay. Unfractionated heparin was mixed with plasma at a final concentration of 0.2 U/mL. […] The ACL Elite Hemostasis analyzer (Beckman Coulter™) was used to add aPTT reagent (HemosIL SynthASil) to supplemented plasma. Clotting was initiated by addition of CaCl2 and time to clot was recorded.

fondaparinux (FONDAPX) = assay: FXa chromogenic assay (absence of plasma), fondaparinux
Method: as §1, §2

[2] = enoxaparin 0.1 μg/mL, absence of plasma
[3] = fondaparinux 0.02 μg/mL, absence of plasma

Row | SMILES | ENOX (FXa) EC50 (enoxaparin (ENOX); [2]) | UFH (aPTT) EC50 ([1]; UFH 0.2 U/mL in plasma) | FONDAPX (FXa) EC50 (fondaparinux (FONDAPX); [3]) | ENOX (FXa) EC50 (enoxaparin (ENOX)) | UFH (aPTT) EC50 [1] | FONDAPX (FXa) EC50 (fondaparinux (FONDAPX))
1 | COc1ccc(NC(=O)[C@H](CCCCN)NC(=O)c2cc(NC(=O)[C@H](CCCCN)NC(=O)c3cc(NC(=O)[C@H](CCCCN)NC(=O)c4cc(NC(=O)[C@H](C)N)ccc4OC)ccc3OC)ccc2OC)cc1C(N)=O [Compound 95] | 0.5734 mg/L | 2.42 mg/L | 5.277 mg/L | – | – | –
2 | COc1ccc(NC(=O)[C@H](CCCNC(=N)N)NC(=O)c2cc(NC(=O)[C@H](CCCNC(=N)N)NC(=O)c3cc(NC(=O)[C@H](CCCNC(=N)N)NC(=O)c4cc(NC(=O)[C@@H](N)CCCNC(=N)N)ccc4OC)ccc3OC)ccc2OC)cc1C(N)=O [Compound 7] | 0.21 mg/L | 1.84 mg/L | 1.49 mg/L | – | – | –
3 | COc1ccc(NC(=O)[C@H](CCCCN)NC(=O)c2cc(NC(=O)[C@H](CCCCN)NC(=O)c3cc(NC(=O)[C@H](CCCCN)NC(=O)c4cc(NC(=O)[C@@H](N)CCCNC(N)=O)ccc4OC)ccc3OC)ccc2OC)cc1C(N)=O [Compound 137] | 0.3761 mg/L | 2.00 mg/L | 4.025 mg/L | – | – | –
4 | COc1cc(OC)c(C(=O)N[C@H]2CC[C@H](NC(=O)c3cc(C(=O)NCCN(C)C)c(OCCCCCNC(=N)N)cc3OCCCCCNC(=N)N)CC2)cc1C(=O)NC1CCC(NC(=O)c2cc(C(=O)NCCN(C)C)c(OCCCCCNC(=N)N)cc2OCCCCCNC(=N)N)CC1 (some centres unmarked) [Compound 3] | 0.25 mg/L | 1.76 mg/L | 1.34 mg/L | – | – | –
5 | COc1cc(OC)c(C(=O)N[C@H]2CC[C@H](NC(=O)c3cc(C(=O)NCCN(C)C)c(OCCCCCNC(=N)N)cc3OCCCCCNC(=N)N)CC2)cc1C(=O)N[C@H]1CC[C@@H](NC(=O)c2cc(C(=O)NCCN(C)C)c(OCCCCCNC(=N)N)cc2OCCCCCNC(=N)N)CC1 [Compound 104] | 0.36 mg/L | >10 mg/L | 2.02 mg/L | – | – | –
6 | COc1ccc(NC(=O)[C@@H](CCCNC(=N)N)NC(=O)c2cc(NC(=O)[C@@H](CCCNC(=N)N)NC(=O)c3cc(NC(=O)[C@@H](CCCNC(=N)N)NC(=O)c4cc(NC(=O)[C@H](N)CC(N)=O)ccc4OC)ccc3OC)ccc2OC)cc1C(N)=O [Compound 72] | 0.22 mg/L | 2.11 mg/L | 1.22 mg/L | – | – | –
7 | COc1ccc(NC(=O)[C@@H](CCCNC(N)=O)NC(=O)c2cc(NC(=O)[C@@H](CCCNC(=N)N)NC(=O)c3cc(NC(=O)[C@@H](CCCNC(N)=O)NC(=O)c4cc(NC(=O)[C@H](N)CCCNC(=N)N)ccc4OC)ccc3OC)ccc2OC)cc1C(N)=O [Compound 47] | – | – | – | 0.36 mg/L | 3.23 mg/L | 6.52 mg/L
8 | COc1ccc(NC(=O)[C@H](CCCCN)NC(=O)c2cc(NC(=O)[C@H](CCCCN)NC(=O)c3cc(NC(=O)[C@H](CCCCN)NC(=O)c4cc(N)cc(C(F)(F)F)c4)ccc3OC)ccc2OC)cc1C(N)=O [Compound 125] | 0.9448 mg/L | >10 mg/L | 3.114 mg/L | – | – | –
9 | COc1ccc(NC(=O)[C@H](C)NC(=O)c2cc(NC(=O)[C@H](CCCCN)NC(=O)c3cc(NC(=O)[C@H](CCCCN)NC(=O)c4cc(NC(=O)[C@@H](N)CCCCN)ccc4OC)ccc3OC)ccc2OC)cc1C(N)=O [Compound 94] | 1.32 mg/L | 4.94 mg/L | >20 mg/L | – | – | –
10 | COc1ccc(NC(=O)[C@@H](CCCNC(=N)N)NC(=O)c2cc(NC(=O)[C@@H](CCCNC(=N)N)NC(=O)[C@H](C)NC(=O)c3cc(NC(=O)[C@@H](CCCNC(=N)N)NC(=O)c4cc(NC(=O)[C@H](N)CCCNC(=N)N)ccc4OC)ccc3OC)ccc2OC)cc1C(N)=O [Compound 74] (H-[dR][3Abz(6-OMe)][dR][3Abz(6-OMe)]A[dR][3Abz(6-OMe)][dR]-{NH(3-CONH2-4-OMe-phenyl)}) | 5.13 mg/L | 5.20 mg/L | 47.76 mg/L | – | – | –
11 | [2H]C([2H])(CN)C([2H])([2H])C[C@H](N)C(=O)Nc1ccc(OC)c(C(=O)N[C@@H](CCCCN)C(=O)Nc2ccc(OC)c(C(=O)N[C@@H](CCCCN)C(=O)Nc3ccc(OC)c(C(=O)N[C@@H](CCCCN)C(=O)Nc4ccc(OC)c(C(N)=O)c4)c3)c2)c1 [Compound 121] | 0.4289 mg/L | 7.48 mg/L | 8.293 mg/L | – | – | –
12 | COc1ccc(NC(=O)[C@@H](CCCNC(=N)N)NC(=O)c2cccc(NC(=O)[C@@H](CCCNC(=N)N)NC(=O)c3cc(NC(=O)[C@@H](CCCNC(=N)N)NC(=O)c4cc(NC(=O)[C@H](N)CCCNC(=N)N)ccc4OC)ccc3OC)c2)cc1C(N)=O [Compound 68] | 0.29 mg/L | 1.99 mg/L | 4.26 mg/L | – | – | –
13 | COc1cc(C(=O)Nc2cc(C(F)(F)F)cc(NC(=O)CCCCNC(=N)N)c2SCCN)c(OC)cc1C(=O)Nc1cc(C(F)(F)F)cc(NC(=O)CCCCNC(=N)N)c1SCCN [Compound 88] | 0.24 mg/L | 4.30 mg/L | 1.38 mg/L | – | – | –
14 | COc1ccc(NC(=O)[C@@H](CCCN)NC(=O)c2cc(NC(=O)[C@@H](CCCNC(=N)N)NC(=O)c3cc(NC(=O)[C@@H](CCCN)NC(=O)c4cc(NC(=O)[C@H](N)CCCNC(=N)N)ccc4OC)ccc3OC)ccc2OC)cc1C(N)=O [Compound 39] | – | – | – | 1.11 mg/L | 3.07 mg/L | 17.09 mg/L
15 | COc1ccc(NC(=O)[C@H](CCCCN)NC(=O)c2cc(NC(=O)[C@H](CCCCN)NC(=O)c3cc(NC(=O)[C@H](CCCCN)NC(=O)c4cc(NC(=O)[C@@H](N)CCCCN)ccc4OC)ccc3OC)ccc2OC)cc1C(=O)N[C@@H](Cc1ccccc1)C(=O)O [Compound 110] | 0.694 mg/L | 2.31 mg/L | 2.951 mg/L | – | – | –
16 | CSc1ccc(NC(=O)[C@H](CCCNC(=N)N)NC(=O)c2cc(NC(=O)[C@H](CCCNC(=N)N)NC(=O)c3cc(NC(=O)[C@H](CCCNC(=N)N)NC(=O)c4cc(NC(=O)[C@@H](N)CCCNC(=N)N)ccc4SC)ccc3SC)ccc2SC)cc1C(N)=O [Compound 97] | 0.9842 mg/L | >10 mg/L | >20 mg/L | – | – | –
17 | COc1ccc(NC(=O)[C@H](CCCCN)NC(=O)c2cc(NC(=O)[C@H](C)NC(=O)c3cc(NC(=O)[C@H](CCCCN)NC(=O)c4cc(NC(=O)[C@@H](N)CCCCN)ccc4OC)ccc3OC)ccc2OC)cc1C(N)=O [Compound 76] | 1.49 mg/L | 6.00 mg/L | 10.50 mg/L | – | – | –
18 | COc1ccc(NC(=O)[C@H](CCCCN)NC(=O)c2cc(NC(=O)[C@H](CCCCN)NC(=O)c3cc(NC(=O)[C@H](CCCCN)NC(=O)c4cc(NC(=O)[C@@H](N)CCCCN)ccc4OC)ccc3OC)ccc2OC)cc1C(=O)NCC(=O)O [Compound 107] | 0.498 mg/L | 1.34 mg/L | 6.961 mg/L | – | – | –
19 | COc1ccc(NC(=O)[C@@H](CCCNC(=N)N)NC(=O)c2cc(NC(=O)[C@@H](CCCNC(=N)N)NC(=O)c3cc(NC(=O)[C@@H](CCCNC(=N)N)NC(=O)c4cc(NC(=O)[C@H](N)CO)ccc4OC)ccc3OC)ccc2OC)cc1C(N)=O [Compound 70] | 0.33 mg/L | 1.55 mg/L | 1.59 mg/L | – | – | –
20 | COc1c(NC(=O)[C@@H](CCCCN)NC(=O)c2cccc(NC(=O)[C@@H](CCCCN)NC(=O)c3cccc(NC(=O)[C@@H](CCCCN)NC(=O)c4cccc(NC(=O)[C@H](N)CCCCN)c4OC)c3OC)c2OC)cccc1C(N)=O [Compound 34] | 45.00 mg/L | inactive | inactive | – | – | –
21 | COc1ccc(NC(=O)[C@@H](CCCNC(=N)N)NC(=O)c2cc(NC(=O)[C@@H](CCCNC(=N)N)NC(=O)c3cc(NC(=O)[C@@H](CCCNC(=N)N)NC(=O)c4cc(NC(=O)[C@@H](C)NC(=O)CCCCNC(=N)N)ccc4OC)ccc3OC)ccc2OC)cc1C(N)=O [Compound 49] | 0.16 mg/L | 1.42 mg/L | 1.03 mg/L | – | – | –
22 | COc1ccc(NC(=O)[C@@H](CCCNC(=N)N)NC(=O)c2cc(NC(=O)[C@@H](CCCNC(=N)N)NC(=O)c3cc(NC(=O)[C@@H](CCCNC(=N)N)NC(=O)c4cc(NC(C)=O)ccc4OC)ccc3OC)ccc2OC)cc1C(N)=O [Compound 93] | 0.38 mg/L | 2.28 mg/L | 0.42 mg/L | – | – | –
23 | COc1ccc(NC(=O)[C@@H](CCCNC(=N)N)NC(=O)c2cc(NC(=O)[C@@H](CCCNC(=N)N)NC(=O)c3cc(NC(=O)[C@@H](CCCNC(=N)N)NC(=O)c4cc(NC(C)=O)ccc4OC)ccc3OC)ccc2OC)cc1C(=O)NCCCCCN [Compound 53] | 0.21 mg/L | 2.08 mg/L | 1.12 mg/L | – | – | –
24 | N=C(N)NCCC[C@@H](N)C(=O)Nc1cccc(C(=O)N[C@H](CCCNC(=N)N)C(=O)Nc2cccc(C(=O)N[C@H](CCCNC(=N)N)C(=O)Nc3cccc(C(=O)N[C@H](CCCNC(=N)N)C(=O)Nc4cccc(C(N)=O)n4)n3)n2)n1 [Compound 65] | 16.29 mg/L | 4.48 mg/L | – | – | – | –
25 | COc1ccc(NC(=O)[C@H](CCCCN)NC(=O)c2cc(NC(=O)[C@H](CCCCN)NC(=O)c3cc(NC(=O)[C@H](CCCCN)NC(=O)c4cc(NC(=O)[C@@H](N)CCCCN)ccc4OC)ccc3OCC(=O)O)ccc2OC)cc1C(N)=O [Compound 118] | – | 3.14 mg/L | – | – | – | –
26 | COc1cc(OC)c(C(=O)N[C@H]2CC[C@H](NC(=O)c3cc(C(=O)NCCN(C)C)c(OCCCCCN)cc3OCCCCCN)CC2)cc1C(=O)NCCN(C)C [Compound 86] | – | inactive | >90 mg/L | – | – | –

From US20110178104A1, “Anti-Heparin Compounds” (POLYMEDIX INC., priority 2010, published 2011)
